According to patent EP4603105A1, “PHARMACEUTICAL COMPOSITION CONTAINING CYCLIC COMPOUND HAVING SELECTIVE KRAS INHIBITORY EFFECT AGAINST HRAS AND NRAS” (CHUGAI SEIYAKU KABUSHIKI KAISHA, priority 2022, dated 2024):
Where a SMILES comes first, the peptide text is derived from it. Bridges are numbered along the chain shown (N, C = ends). [ ]: non-standard residue; d: D form. The star is where a group is joined. hPhe(3-Cl-4-CF3) = N[C@@H](CCc1ccc(C(F)(F)F)c(Cl)c1)C(=O)O; NPrPhe(4-CF3) = CCCN[C@@H](Cc1ccc(C(F)(F)F)cc1)C(=O)O; NMeGly(cPent) = CN[C@H](C(=O)O)C1CCCC1; Pro(4,4-F2) = O=C(O)[C@@H]1CC(F)(F)CN1; NMeD = CN[C@@H](CC(=O)O)C(=O)O; NMeL = CN[C@@H](CC(C)C)C(=O)O; Morpholide = C1CN(*)CCO1; Ac5c = NC1(C(=O)O)CCCC1; Aze = O=C(O)[C@@H]1CCN1; Ac4c = NC1(C(=O)O)CCC1; Sar = CNCC(=O)O

Assays:
HRAS wild-type protein = HRAS wild-type protein (Homo sapiens, UniProt P01112); experiment: Binding to HRAS by surface plasmon resonance (SPR), KD and KD ratio to KRAS
Summary of the method: (§1)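 Affinity is measured by surface plasmon resonance at 30°C against captured, GDP-loaded RAS carrying a biotinylated Avi tag. Compounds are titrated by single-cycle kinetics, and KD comes from a 1:1 fit.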

[1] = biological target: GDP-bound KRAS wild-type protein (Homo sapiens, UniProt P01116); experiment: Binding to KRAS by surface plasmon resonance (SPR), dissociation constant KD
Summary of the method: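 GDP-bound biotin-Avi RAS captured at ~100–300 RU, 30°C, pH 7.4 HBS containing 10 µM GDP, 10 mM MgCl2, 1 mM DTT, 0.01% Tween 20 and 4% DMSO. KD by 1:1 fitting.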

[2] = system: human lung cancer strain NCI-H441; format: cell-based
Summary of the method: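 Readout: […] after the ATP-based reagent. Compound: serial dilutions in dimethyl sulfoxide.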

[3] = biological target: GDP-bound NRAS wild-type protein (Homo sapiens, UniProt P01111); experiment: Binding to NRAS by surface plasmon resonance (SPR), KD and KD ratio to KRAS
Summary of the method: as §1

[4] = ratio of the KD value with respect to HRAS wild-type protein to the KD value with respect to KRAS
[5] = Single Cycle Kinetics, 1:1 binding model
[6] = ratio of the KD value with respect to GDP-bound NRAS wild-type protein to the KD value with respect to KRAS
[7] = ratio of KD for HRAS wild-type protein to KD for KRAS
[8] = ratio of KD for GDP-bound NRAS wild-type protein to KD for KRAS
[9] = ratio of KD value for HRAS wild-type protein to KD value for KRAS (SPR)
[10] = ratio of KD value for GDP-bound NRAS wild-type protein to KD value for KRAS (SPR)

Sequence of GDP-bound NRAS wild-type protein (P01111 whole entry): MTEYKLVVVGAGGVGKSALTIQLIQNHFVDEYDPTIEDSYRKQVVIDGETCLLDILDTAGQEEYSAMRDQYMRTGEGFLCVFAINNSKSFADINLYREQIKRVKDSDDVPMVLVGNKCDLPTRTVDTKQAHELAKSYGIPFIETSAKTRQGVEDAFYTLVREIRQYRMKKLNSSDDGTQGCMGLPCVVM
Sequence of GDP-bound KRAS wild-type protein (P01116 1-188 isoform P01116-2): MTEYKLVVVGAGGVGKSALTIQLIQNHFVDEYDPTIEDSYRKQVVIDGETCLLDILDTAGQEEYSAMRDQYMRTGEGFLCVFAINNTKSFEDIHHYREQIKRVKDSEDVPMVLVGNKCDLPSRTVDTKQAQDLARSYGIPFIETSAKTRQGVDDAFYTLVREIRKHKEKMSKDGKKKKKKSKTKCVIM
Sequence of HRAS wild-type protein (P01112 whole entry): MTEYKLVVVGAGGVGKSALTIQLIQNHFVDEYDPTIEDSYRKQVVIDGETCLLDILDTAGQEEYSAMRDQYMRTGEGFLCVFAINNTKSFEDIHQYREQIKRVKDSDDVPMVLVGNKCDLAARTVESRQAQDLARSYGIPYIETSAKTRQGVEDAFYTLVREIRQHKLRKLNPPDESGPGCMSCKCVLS

SMILES	HRAS /KRAS (HRAS wild-type protein; [4])	Kd [1, 5] [nM]	IC50 [2] [nM]	NRAS /KRAS [3, 6]	HRAS /KRAS (HRAS wild-type protein; [7])	Kd ([1]; 1:1 binding model) [nM]	NRAS /KRAS [3, 8]	HRAS /KRAS (HRAS wild-type protein; [9])	NRAS /KRAS [3, 10]	Kd ([1]; Single Cycle Kinetics) [nM]
CCCN1C(=O)CN(C)C(=O)[C@@H]2CCN2C(=O)[C@H]([C@@H](C)CC)NC(=O)[C@H](CC(C)C)N(C)C(=O)C[C@@H](C(=O)N(C)C)N(C)C(=O)[C@H](C2CCCC2)N(C)C(=O)C2(CCC2)NC(=O)[C@@H]2CC(F)(F)CN2C(=O)[C@H](CCc2ccc(C(F)(F)F)c(Cl)c2)NC(=O)CN(C)C(=O)[C@@H]1Cc1ccc(C(F)(F)F)cc1 [PP0432] ([NMeL]I[Aze][Sar][NPrPhe(4-CF3)][Sar][hPhe(3-Cl-4-CF3)][Pro(4,4-F2)][Ac4c][NMeGly(cPent)][NMeD]-NMe2; lactam N-11)	B (a compound having 3 or more and less than 10 is denoted as B)	0.17	10.7	B (a compound having 3 or more and less than 10 is denoted as B)						
CCO[C@@H]1C[C@H]2C(=O)NC3(CC(C)(C)C3)C(=O)N(C)[C@@H](C(CC)CC)C(=O)N(C)[C@H](C(=O)N(C)C)CC(=O)N(C)[C@H]3CC/C=C/c4ccc(cc4)C[C@@H](C(=O)N(C)CC(=O)N[C@@H](CCc4ccc(Cl)c(Cl)c4)C(=O)N2C1)N1CC/C=C\C[C@@H](C1=O)N(C)C(=O)CN(C)C(=O)[C@H]([C@@H](C)CC)NC3=O [PP2589]			74.1		A (a compound having 10 or more and less than 20 is denoted as A)	0.45	AA (a compound having 20 or more is denoted as AA)			
CCCN1C(=O)CN(C)C(=O)[C@@H]2CCN2C(=O)[C@H]([C@@H](C)CC)NC(=O)[C@H](CC(C)C)N(C)C(=O)C[C@@H](C(=O)N2CCOCC2)N(C)C(=O)[C@H](C2CCCC2)N(C)C(=O)C2(CCCC2)NC(=O)[C@@H]2CCCN2C(=O)[C@H](CCc2ccc(C(F)(F)F)c(Cl)c2)NC(=O)CN(C)C(=O)[C@@H]1Cc1ccc(C(F)(F)F)cc1 [PP0158] ([NMeL]I[Aze][Sar][NPrPhe(4-CF3)][Sar][hPhe(3-Cl-4-CF3)]P[Ac5c][NMeGly(cPent)][NMeD]-Morpholide; lactam N-11)			15.4		B (a compound having 3 or more and less than 10 is denoted as B)	0.85	A (a compound having 10 or more and less than 20 is denoted as A)			
CCO[C@@H]1C[C@H]2C(=O)NC3(CC(C)(C)C3)C(=O)N(C)[C@@H](C(CC)CC)C(=O)N(C)[C@H](C(=O)N(C)C)CC(=O)N(C)[C@@H](C(C)C)C(=O)N[C@@H]([C@@H](C)CC)C(=O)N(C)CC(=O)N(C)[C@H]3C/C=C\CCN(C3=O)[C@@H](Cc3ccc(C)cc3)C(=O)N(C)CC(=O)N[C@@H](CCc3cc(F)c(C(F)(F)F)c(F)c3)C(=O)N2C1 [PP2153]	A (a compound having 10 or more and less than 20 is denoted as A)	0.49	20	A (a compound having 10 or more and less than 20 is denoted as A)						
CCCOC[C@H]1C(=O)N[C@@H]([C@@H](C)CC)C(=O)N(C)CC(=O)N(C)[C@H]2C/C=C\CCN(C2=O)[C@@H](Cc2ccc(C)cc2)C(=O)N(C)CC(=O)N[C@@H](CCc2cc(F)c(C(F)(F)F)c(F)c2)C(=O)N2C[C@H](CCC)C[C@H]2C(=O)NC2(CC(C)(C)C2)C(=O)N(C)[C@@H](C2CCCC2)C(=O)N(C)[C@H](C(=O)N(C)C)CC(=O)N1C [PP2203]	A (a compound having 10 or more and less than 20 is denoted as A)	0.34	20.5	A (a compound having 10 or more and less than 20 is denoted as A)						
CCC[C@H]1C(=O)N[C@@H]([C@@H](C)CC)C(=O)N(C)CC(=O)N(C)[C@H]2C/C=C\CCN(C2=O)[C@@H](Cc2ccc(C)cc2)C(=O)N(C)CC(=O)N[C@@H](CCc2ccc3c(C)cn(C)c3c2)C(=O)N2C[C@H](OCC)C[C@H]2C(=O)NC2(CC(C)(C)C2)C(=O)N(C)[C@@H](C(CC)CC)C(=O)N(C)[C@H](C(=O)N(C)C)CC(=O)N1C [PP2910]			39.8		A (a compound having 10 or more and less than 20 is denoted as A)	3	AA (a compound having 20 or more is denoted as AA)			
CCCC[C@H]1C(=O)N[C@@H]([C@@H](C)CC)C(=O)N(C)CC(=O)N(C)[C@H]2C/C=C\CCN(C2=O)[C@@H](Cc2ccc(C(F)(F)F)cc2)C(=O)N(C)CC(=O)N[C@@H](CCc2cc(F)c(C(F)(F)F)c(F)c2)C(=O)N2C[C@H](OCC)C[C@H]2C(=O)NC2(CCC2)C(=O)N(C)[C@@H](C2CCCC2)C(=O)N(C)[C@H](C(=O)N(CC)CC)CC(=O)N1C [PP1576]		0.14	7.6					A (a compound having 10 or more and less than 20 is denoted as A)	AA (a compound having 20 or more is denoted as AA)	
CCC[C@H]1C(=O)N[C@@H]([C@@H](C)CC)C(=O)N(C)CC(=O)N(C)[C@H]2C/C=C\CCN(C2=O)[C@@H](Cc2ccc(C(F)(F)F)cc2)C(=O)N(C)CC(=O)N[C@@H](CCc2ccc(C(F)(F)F)c(F)c2)C(=O)N2C[C@H](F)C[C@H]2C(=O)NC2(CC(C)(C)C2)C(=O)N(C)[C@@H](C2CCCCC2)C(=O)N(C)[C@H](C(=O)N(C)C)CC(=O)N1C [PP3122]			11.1		B (a compound having 3 or more and less than 10 is denoted as B)	0.4	A (a compound having 10 or more and less than 20 is denoted as A)			
CC[C@H](C)[C@@H]1NC(=O)[C@H](CC(C)C)N(C)C(=O)C[C@@H](C(=O)N(C)C)N(C)C(=O)[C@H](C2CCCC2)N(C)C(=O)C2(CCC2)N(C)C(=O)[C@@H]2CCCN2C(=O)[C@H](CCc2cc(F)c(C(F)(F)F)c(F)c2)NC(=O)CN(C)C(=O)[C@H](Cc2ccc(C)cc2)N2CC/C=C\C[C@@H](C2=O)N(C)C(=O)CN(C)C1=O [PP1791]		0.042	3.7					A (a compound having 10 or more and less than 20 is denoted as A)	A (a compound having 10 or more and less than 20 is denoted as A)	
CCCN1C(=O)CN(C)C(=O)[C@@H]2CCN2C(=O)[C@H]([C@@H](C)CC)NC(=O)[C@H](CC(C)C)N(C)C(=O)C[C@@H](C(=O)N(C)C)NC(=O)[C@H](C2CCCC2)N(C)C(=O)C2(CCC2)NC(=O)[C@@H]2CC(F)(F)CN2C(=O)[C@H](CCc2ccc(C(F)(F)F)c(Cl)c2)NC(=O)CN(C)C(=O)[C@@H]1Cc1ccc(C(F)(F)F)cc1 [PP0376] ([NMeL]I[Aze][Sar][NPrPhe(4-CF3)][Sar][hPhe(3-Cl-4-CF3)][Pro(4,4-F2)][Ac4c][NMeGly(cPent)]D-NMe2; lactam N-11)			114		B (a compound having 3 or more and less than 10 is denoted as B)	2	B (a compound having 3 or more and less than 10 is denoted as B)			
CCO[C@@H]1C[C@H]2C(=O)NC3(CCC3)C(=O)N(C)[C@@H](C3CCCC3)C(=O)N(C)[C@H](C(=O)N(C)C)CC(=O)N(C)[C@@H](CC)C(=O)N[C@@H]([C@@H](C)CC)C(=O)N3CCCC[C@H]3C(=O)N(C)[C@H]3C/C=C\CCN(C3=O)[C@@H](Cc3ccc(C(F)(F)F)cc3)C(=O)N(C)CC(=O)N[C@@H](CCc3cc(F)c(C(F)(F)F)c(F)c3)C(=O)N2C1 [PP1058]			599		B (a compound having 3 or more and less than 10 is denoted as B)		A (a compound having 10 or more and less than 20 is denoted as A)			2.9
CCO[C@@H]1C[C@H]2C(=O)NC3(CC(C)(C)C3)C(=O)N(C)[C@@H](C3CCCC3)C(=O)N(C)[C@H](C(=O)N(C)CC)CC(=O)N(C)[C@@H](CC(C)C)C(=O)N[C@@H]([C@@H](C)CC)C(=O)N(C)CC(=O)N(C)[C@H]3C/C=C\CCN(C3=O)[C@@H](Cc3ccc(C(F)F)cc3)C(=O)N(C)CC(=O)N[C@@H](CCc3cc(F)c(CC)c(OC)c3)C(=O)N2C1 [PP3143]			41		A (a compound having 10 or more and less than 20 is denoted as A)	0.66	A (a compound having 10 or more and less than 20 is denoted as A)			
CCC[C@H]1C(=O)N[C@@H]([C@@H](C)CC)C(=O)N(C2CC2)CC(=O)N(C)[C@H]2C/C=C\CCN(C2=O)[C@@H](CC2CCCCC2)C(=O)N(C)CC(=O)N[C@@H](CCc2ccc(C(F)(F)F)c(OC)c2)C(=O)N2C[C@H](OCC)C[C@H]2C(=O)N(C)C2(CCC2)C(=O)N(C)[C@@H](C(CC)CC)C(=O)N(C)[C@H](C(=O)N(C)C)CC(=O)N1C [PP2337]	A (a compound having 10 or more and less than 20 is denoted as A)	32	33.9	A (a compound having 10 or more and less than 20 is denoted as A)						
